The source of these data is patent EP4806891A1 (Kangbaida (Sichuan) Biotechnology Co., Ltd., priority 2023, dated 2025).

This test deals with T1, HEK-Blue-hTLR9 cells (Homo sapiens, UniProt Q9NR96).
T1 construct: expressed in transfected cells; host or cells: HEK-Blue-hTLR9 cells (HEK293-derived reporter line)
T1 sequence (Q9NR96 26-1032): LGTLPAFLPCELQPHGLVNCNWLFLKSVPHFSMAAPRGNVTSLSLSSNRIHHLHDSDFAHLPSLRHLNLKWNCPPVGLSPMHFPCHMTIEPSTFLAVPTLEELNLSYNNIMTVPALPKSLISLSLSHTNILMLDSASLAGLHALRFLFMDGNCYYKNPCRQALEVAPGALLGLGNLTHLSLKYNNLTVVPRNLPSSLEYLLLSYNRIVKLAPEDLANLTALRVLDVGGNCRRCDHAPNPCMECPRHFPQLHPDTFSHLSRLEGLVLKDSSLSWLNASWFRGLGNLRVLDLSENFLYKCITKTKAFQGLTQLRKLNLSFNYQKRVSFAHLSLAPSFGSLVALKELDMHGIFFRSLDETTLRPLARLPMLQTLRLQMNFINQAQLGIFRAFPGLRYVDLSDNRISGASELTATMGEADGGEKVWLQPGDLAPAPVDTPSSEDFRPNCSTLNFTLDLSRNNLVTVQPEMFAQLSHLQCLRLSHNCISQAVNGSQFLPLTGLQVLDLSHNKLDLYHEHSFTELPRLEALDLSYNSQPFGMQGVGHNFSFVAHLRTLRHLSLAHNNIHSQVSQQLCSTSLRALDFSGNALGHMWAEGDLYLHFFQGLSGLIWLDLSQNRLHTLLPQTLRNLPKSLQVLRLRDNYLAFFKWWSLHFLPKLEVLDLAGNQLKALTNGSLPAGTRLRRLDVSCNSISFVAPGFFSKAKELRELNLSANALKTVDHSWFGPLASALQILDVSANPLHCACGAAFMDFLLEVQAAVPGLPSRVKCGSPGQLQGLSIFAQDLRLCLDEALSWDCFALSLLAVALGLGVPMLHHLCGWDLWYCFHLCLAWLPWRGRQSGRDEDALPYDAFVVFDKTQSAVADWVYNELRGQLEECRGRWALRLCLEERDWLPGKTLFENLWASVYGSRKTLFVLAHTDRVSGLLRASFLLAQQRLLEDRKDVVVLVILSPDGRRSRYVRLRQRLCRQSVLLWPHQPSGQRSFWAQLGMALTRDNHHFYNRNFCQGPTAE
As to the kind of experiment: HEK-Blue-hTLR9 cell inhibition assay. The class given is cell-based. As to conditions: ODN2006 1 µM, 16 h, OD 620 nm, read-out: TLR9 IC50. Here is the method:
HEK-Blue-hTLR7/8/9 cell inhibition assay
1. HEK-Blue-hTLR7/8 cells (1 × 10^4 cells/well) and HEK-Blue-hTLR9 cells (1.5 × 10^4 cells/well) were seeded in a 384-well cell culture plate, with a volume of 30 µL per well. The plate was incubated at 37°C in a 5% CO2 incubator for 4 h. 2. The compound was prepared with DMSO and diluted in DMEM medium to 10 concentrations (1:3 dilution), with final concentrations of 10000, 3333.3, 1111.1, 370.4, 123.5, 41.2, 13.7, 4.6, 1.5, and 0.5 nM; R848 was prepared with DMSO and diluted in DMEM medium, with final concentrations of 0.8 µM (HEK-Blue-hTLR7) and 3 µM (HEK-Blue-hTLR8); ODN2006 was prepared with endotoxin-free water and diluted in DMEM medium, with a final concentration of 1 µM. 3. Cells treated with DMSO were used as the blank control group, while cells treated solely with Resiquimod (R848) were used as the positive control group for HEK-Blue-hTLR7/8, and cells treated solely with ODN2006 were used as the positive control group for HEK-Blue-hTLR9. Cells treated with the test compound together with R848 or ODN2006 were used as the test group. Two parallel wells were set for each group and were placed at 37°C in a 5% CO2 incubator for incubation. 4. After being incubated for 4 h, the 384-well plate of HEK-Blue-hTLR7/8 was taken out from the incubator, and R848 alone or both R848 and the diluted compound were separately added into each well. The plate was placed at 37°C in a 5% CO2 incubator for incubation for 16 h; the 384-well plate of HEK-Blue-hTLR9 was taken out from the incubator, and ODN2006 alone or both ODN2006 and the diluted compound were added separately to each well. The plate was incubated at 37°C in a 5% CO2 incubator for 16 h. 5. After being incubated for 16 h, the 384-well plate was removed from the incubator and centrifuged at 1000 rpm for 1 minute. The optical density value of each well at 620 nm was measured using a multifunctional microplate reader. 6. The cell inhibition rate was calculated as (1-(OD620 test group-OD620 blank group)/(OD620 positive group-OD620 blank group))×100%, and the half maximal inhibitory concentration (IC50) was calculated through curve fitting. Table 1: Activity of the compounds of the present disclosure in HEK-Blue-hTLR7/8/9 cellular assays

Bounds are passed on as bounds.

For the molecule `N#Cc1ccc(N2C[C@]3(c4nnc(CC5CNC5)o4)C[C@]3(C(F)(F)F)C2)c2cccnc12` [Compound 35, 5-((1S,5R)-1-(5-(azetidin-3-ylmethyl)-1,3,4-oxadiazol-2-yl)-5-(trifluoromethyl)-3-azabicyclo[3.1.0]hexan-3-yl)quinoline-8-carbonitrile], the IC50 (in general, the concentration that inhibits the measured activity by half) was over 1 µM.

As for `CN1CC(Cc2nnc([C@]34CN(c5ccc(C#N)c6ncccc56)C[C@@]3(C(F)(F)F)C4)o2)C1` [Compound 36, 5-((1S,5R)-1-(5-((1-methylazetidin-3-yl)methyl)-1,3,4-oxadiazol-2-yl)-5-(trifluoromethyl)-3-azabicyclo[3.1.0]hexan-3-yl)quinoline-8-carbonitrile], the IC50 was over 1 µM.

As for `CN1CCC(Cc2nnc([C@]34CN(c5ccc(C#N)c6ncccc56)C[C@@]3(C(F)(F)F)C4)o2)CC1` [Compound 37, 5-((1S,5R)-1-(5-((1-methylpiperidin-4-yl)methyl)-1,3,4-oxadiazol-2-yl)-5-(trifluoromethyl)-3-azabicyclo[3.1.0]hexan-3-yl)quinoline-8-carbonitrile], the half-maximal inhibitory concentration (IC50) was over 1 µM.

Consider `CN1CCC(Cc2nnc([C@]34CN(c5ccc(C#N)c6ncccc56)C[C@@]3(C(F)(F)F)C4)n2C)CC1` [Compound 38, 5-((1S,5R)-1-(4-methyl-5-((1-methylpiperidin-4-yl)methyl)-4H-1,2,4-triazol-3-yl)-5-(trifluoromethyl)-3-azabicyclo[3.1.0]hexan-3-yl)quinoline-8-carbonitrile], for which the IC50 was over 10 µM.

As to `CN1CC(c2nnc([C@]34CN(c5ccc(C#N)c6ncccc56)C[C@@]3(C(F)(F)F)C4)o2)C1` [Compound 39, 5-((1S,5R)-1-(5-(1-methylazetidin-3-yl)-1,3,4-oxadiazol-2-yl)-5-(trifluoromethyl)-3-azabicyclo[3.1.0]hexan-3-yl)quinoline-8-carbonitrile], the IC50 was over 1 µM.

In the case of `N#Cc1ccc(N2C[C@]3(c4nnc(CN5CCOCC5)o4)C[C@]3(C(F)(F)F)C2)c2cccnc12` [Compound 40, 5-((1S,5R)-1-(5-(morpholinomethyl)-1,3,4-oxadiazol-2-yl)-5-(trifluoromethyl)-3-azabicyclo[3.1.0]hexan-3-yl)quinoline-8-carbonitrile], the concentration for half-maximal inhibition (IC50) was over 10 µM.

Regarding `N#Cc1ccc(N2C[C@]3(c4nnc(CN5CCCC5)o4)C[C@]3(C(F)(F)F)C2)c2cccnc12` [Compound 41, 5-((1S,5R)-1-(5-(Pyrrolidin-1-ylmethyl)-1,3,4-oxadiazol-2-yl)-5-(trifluoromethyl)-3-azabicyclo[3.1.0]hexan-3-yl)quinoline-8-carbonitrile], the IC50 is over 10 µM.

As to `CN(C)Cc1nnc([C@]23CN(c4ccc(C#N)c5ncccc45)C[C@@]2(C(F)(F)F)C3)o1` [Compound 42, 5-((1S,5R)-1-(5-((dimethylamino)methyl)-1,3,4-oxadiazol-2-yl)-5-(trifluoromethyl)-3-azabicyclo[3.1.0]hexan-3-yl)quinoline-8-carbonitrile], the IC50 was over 10 µM.

On to `N#Cc1ccc(N2C[C@]3(c4nnc(CCN5CCOCC5)o4)C[C@]3(C(F)(F)F)C2)c2cccnc12` [Compound 43, 5-((1S,5R)-1-(5-(morpholinoethyl)-1,3,4-oxadiazol-2-yl)-5-(trifluoromethyl)-3-azabicyclo[3.1.0]hexan-3-yl)quinoline-8-carbonitrile], for which the IC50 is over 10 µM.

On to `Cn1c(CN2CCCC2)nnc1[C@]12CN(c3ccc(C#N)c4ncccc34)C[C@@]1(C(F)(F)F)C2` [Compound 44, 5-((1S,5R)-1-(4-methyl-5-(pyrrolidin-1-ylmethyl)-4H-1,2,4-triazol-3-yl)-5-(trifluoromethyl)-3-azabicyclo[3.1.0]hexan-3-yl)quinoline-8-carbonitrile], for which the half-inhibitory concentration (IC50) was over 10 µM.

For the molecule `N#Cc1ccc(N2C[C@]3(c4nnc(C5CNCC(F)C5)o4)C[C@]3(C(F)(F)F)C2)c2cccnc12` (stereo partly drawn) [Compound 45, 5-((1R,5S)-1-((difluoro-3-methyl)-12-fluoraneyl)-5-(5-(5-fluoropiperidin-3-yl)-1,3,4-oxadiazol-2-yl)-3-azabicyclo[3.1.0]hexan-3-yl)quinoline-8-carbonitrile], the IC50 was over 10 µM.

For `N#Cc1ccc(N2C[C@]3(c4nnc(C5(F)CCNC5)o4)C[C@]3(C(F)(F)F)C2)c2cccnc12` (stereo partly drawn) [Compound 46, 5-((1S,5R)-1-(5-(3-fluoropyrrolidin-3-yl)-1,3,4-oxadiazol-2-yl)-5-(trifluoromethyl)-3-azabicyclo[3.1.0]hexan-3-yl)quinoline-8-carbonitrile], the IC50 was over 10 µM.

With `CN1CCC(F)(c2nnc([C@]34CN(c5ccc(C#N)c6ncccc56)C[C@@]3(C(F)(F)F)C4)o2)C1` (stereo partly drawn) [Compound 47, 5-((1S,5R)-1-(5-(3-fluoro-1-methylpyrrolidin-3-yl)-1,3,4-oxadiazol-2-yl)-5-(trifluoromethyl)-3-azabicyclo[3.1.0]hexan-3-yl)quinoline-8-carbonitrile], the IC50 was over 10 µM.

For the molecule `CN1CC(F)(c2nnc([C@]34CN(c5ccc(C#N)c6ncccc56)C[C@@]3(C(F)(F)F)C4)o2)C1` [Compound 49, 5-((1S,5R)-1-(5-(3-fluoro-1-methylazetidin-3-yl)-1,3,4-oxadiazol-2-yl)-5-(trifluoromethyl)-3-azabicyclo[3.1.0]hexan-3-yl)quinoline-8-carbonitrile], the IC50 was over 10 µM.

For `CN1CCC(c2nnc([C@]34CN(c5ccc(C#N)c6ncccc56)C[C@@]3(C(F)(F)F)C4)o2)C(F)C1` (stereo partly drawn) [Compound 50, 5-((1S,5R)-1-(5-(3-fluoro-1-methylpiperidin-4-yl)-1,3,4-oxadiazol-2-yl)-5-(trifluoromethyl)-3-azabicyclo[3.1.0]hexan-3-yl)quinoline-8-carbonitrile], the IC50 was over 1 µM.

For `CN(C)CCc1nnc([C@]23CN(c4ccc(C#N)c5ncccc45)C[C@@]2(C(F)(F)F)C3)o1` [Compound 51, 5-((1S,5R)-1-(5-(2-(dimethylamino)ethyl)-1,3,4-oxadiazol-2-yl)-5-(trifluoromethyl)-3-azabicyclo[3.1.0]hexan-3-yl)quinoline-8-carbonitrile], the IC50 is over 10 µM.

In the case of `N#Cc1ccc(N2C[C@]3(c4nnc(C56CCC(N)(CC5)CC6)o4)C[C@]3(C(F)(F)F)C2)c2cccnc12` [Compound 52, 5-((1S,5R)-1-(5-(4-aminobicyclo[2.2.2]octan-1-yl)-1,3,4-oxadiazol-2-yl)-5-(trifluoromethyl)-3-azabicyclo[3.1.0]hexan-3-yl)quinoline-8-carbonitrile], the IC50 was under 1 µM.

With `CN(C)C12CCC(c3nnc([C@]45CN(c6ccc(C#N)c7ncccc67)C[C@@]4(C(F)(F)F)C5)o3)(CC1)CC2` [Compound 53, 5-((1S,5R)-1-(5-(4-(dimethylamino)bicyclo[2.2.2]octan-1-yl)-1,3,4-oxadiazol-2-yl)-5-(trifluoromethyl)-3-azabicyclo[3.1.0]hexan-3-yl)quinoline-8-carbonitrile], the IC50 is over 1 µM.
